Reference: US7759510B2, “Platinum complexes and methods of use” (University of South Florida, priority 2003, dated 2010)
Like-named read-outs stand apart in the source and are kept apart here.

Test system: A549 cells
Assay: MTT assay, percent survival of A549 cells
Format: cell-based
Details: for IC50: Homo sapiens
Experimental: 1. Prepare a suspension of A549 cells at 2×10^5 cells per mL in supplemented DMEM/F12 growth medium.
2. Plate 2×10^4 cells per well in a 96 well cell culture plate by adding 100 μL of stock suspension to each well.
3. For each platinum compound (already in solution), prepare a readily usable stock solution in DMEM/F12 medium.
4. For each compound generate triplicate trials of 0, 10, 20, 30, 40, 50, 60, and 70 μM concentration. This is achieved in situ by adding appropriate volumes of stock solution to each well along with the volume of untreated medium necessary to generate the desired concentration in a final volume of 200 μL.
5. Gently agitate plates to mix contents. Incubate at 37° C., 7% CO2 for 45 hours.
6. Add 20 μL of 5 mg/mL MTT solution (in PBS) to each well.
7. Gently agitate plates to mix contents and incubate an additional 3 hours to allow product development.
8. Remove plates from incubator and agitate to cause settling of formazan product.
9. Aspirate out liquid contents of each well using needle and syringe and discard.
10. Add 200 μL DMSO to each well to dissolve formazan product.
11. Agitate plates until all of the formazan product is in solution and no purple crystals remain on the bottom surface of the wells.
12. Read the absorbance of each well at […] using Varian software for Cary 50 UV-vis Spectrophotometer with fiber optic probe accessory.
(§1) MTT assays are used for the quantitative determination of cellular proliferation and activation and for the quantitation of in vitro tumor cell sensitivity to anti-cancer compounds. The assay is based on the cleavage of the yellow tetrazolium salt MTT into purple colored formazan by metabolically active cells. Solubilized formazan product can be photometrically quantitated using an ELISA plate reader. A decrease in the number of living cells results in a decrease in total metabolic activity which leads to a decrease in color formation. Platinum complexes of the present invention were tested in MTT assays using A549 cells to determine anti-cancer cell activity. […] FIGS. 1, 2, and 4 show percent survival versus platinum complex concentration in graphical form.
as §1, with “FIGS. 8, 9,” for “FIGS. 1, 2,”, “and 11” for “and 4”

Cn1c(=O)c2[nH]cnc2n(C)c1=O [Theophylline] was tested. Which “Average Absorbance” value (Table 9, A549, 10 μM) did it give?
The value was 0.5681.

What about the “Percent Survival” value (Table 9, A549, 10 μM) of the same compound?
Its value is 89.1%.

What about the “Average Absorbance” value (Table 9, A549, 20 μM) of the same compound?
Its value is 0.3864.

And the “Percent Survival” value (Table 9, A549, 20 μM)?
Its value is 60.6%.

What about the “Average Absorbance” value (Table 9, A549, 30 μM) of the same compound?
Its value is 0.2159.

What about the “Percent Survival” value (Table 9, A549, 30 μM) of the same compound?
The value was 33.86%.

What about the “Average Absorbance” value (Table 9, A549, 40 μM) of the same compound?
Its value is 0.0585.

What about the “Percent Survival” value (Table 9, A549, 40 μM) of the same compound?
Its value is 9.174%.

And the “Average Absorbance” value (Table 9, A549, 50 μM)?
The value was 0.0047.

And the “Percent Survival” value (Table 9, A549, 50 μM)?
Its value is 0.7371%.

And the “Average Absorbance” value (Table 9, A549, 60 μM)?
The value was 0.03173.

And the “Percent Survival” value (Table 9, A549, 60 μM)?
Its value is 4.976%.

And the “Average Absorbance” value (Table 9, A549, 70 μM)?
Its value is −0.001567.

And the “Percent Survival” value (Table 9, A549, 70 μM)?
Its value is −0.2457%.

For CO[C@H]1O[C@H](CO)[C@@H](O)[C@H](O)[C@@H]1O [Methyl alpha-D-Mannopyranoside], which IC50 (Table 7, A549, linear trend from percent survival vs. concentration data, read-out: Calculated IC 50 (uM concentration)) is on record?
Its IC50 is 50.1 µM.

What about the “Average Absorbance” value (Table 6, A549, 10 μM) of the same compound?
Its value is 2.4582.

And the “Percent Survival” value (Table 6, A549, 10 μM)?
The value was 104.1125%.

And the “Average Absorbance” value (Table 6, A549, 20 μM)?
The value was 2.4610.

And the “Percent Survival” value (Table 6, A549, 20 μM)?
The value was 104.2311%.

What about the “Average Absorbance” value (Table 6, A549, 30 μM) of the same compound?
Its value is 2.1544.

And the “Percent Survival” value (Table 6, A549, 30 μM)?
Its value is 91.2456%.

What about the “Average Absorbance” value (Table 6, A549, 40 μM) of the same compound?
The value was 1.1005.

What about the “Percent Survival” value (Table 6, A549, 40 μM) of the same compound?
The value was 46.6096%.

And the “Average Absorbance” value (Table 6, A549, 50 μM)?
The value was 0.6631.

What about the “Percent Survival” value (Table 6, A549, 50 μM) of the same compound?
Its value is 28.0844%.

And the “Average Absorbance” value (Table 6, A549, 60 μM)?
Its value is 0.9420.

What about the “Percent Survival” value (Table 6, A549, 60 μM) of the same compound?
The value was 39.8967%.

And the “Average Absorbance” value (Table 6, A549, 70 μM)?
The value was 0.8479.

What about the “Percent Survival” value (Table 6, A549, 70 μM) of the same compound?
The value was 35.9112%.

What about the “Average Absorbance” value (Table 8, A549, 10 μM) of the same compound?
The value was 2.6117.

What about the “Percent Survival” value (Table 8, A549, 10 μM) of the same compound?
The value was 106.9098%.

And the “Average Absorbance” value (Table 8, A549, 20 μM)?
The value was 2.4353.

And the “Percent Survival” value (Table 8, A549, 20 μM)?
Its value is 99.6889%.

What about the “Average Absorbance” value (Table 8, A549, 30 μM) of the same compound?
The value was 1.7315.

And the “Percent Survival” value (Table 8, A549, 30 μM)?
Its value is 70.8789%.

And the “Average Absorbance” value (Table 8, A549, 40 μM)?
Its value is 0.6173.

What about the “Percent Survival” value (Table 8, A549, 40 μM) of the same compound?
The value was 25.2691%.

What about the “Average Absorbance” value (Table 8, A549, 50 μM) of the same compound?
The value was 0.4370.

What about the “Percent Survival” value (Table 8, A549, 50 μM) of the same compound?
Its value is 17.8886%.

What about the “Average Absorbance” value (Table 8, A549, 60 μM) of the same compound?
The value was 0.5017.

What about the “Percent Survival” value (Table 8, A549, 60 μM) of the same compound?
The value was 20.5371%.

What about the “Average Absorbance” value (Table 8, A549, 70 μM) of the same compound?
The value was 0.5339.

What about the “Percent Survival” value (Table 8, A549, 70 μM) of the same compound?
The value was 21.8552%.

Which results are given for NC(=O)c1ccc(N)nc1 [6-Aminonicotinamide]?
IC50 (A549, read-out: Calculated IC 50 (uM concentration)): 53.1 µM; Average Absorbance (Table 6, A549, 10 μM): 2.3742; Percent Survival (Table 6, A549, 10 μM): 100.5548%; Average Absorbance (Table 6, A549, 20 μM): 2.4321; Percent Survival (Table 6, A549, 20 μM): 103.0071%; Average Absorbance (Table 6, A549, 30 μM): 2.2814; Percent Survival (Table 6, A549, 30 μM): 96.6245%; Average Absorbance (Table 6, A549, 40 μM): 1.7213; Percent Survival (Table 6, A549, 40 μM): 72.9025%; Average Absorbance (Table 6, A549, 50 μM): 0.8618; Percent Survival (Table 6, A549, 50 μM): 36.4999%; Average Absorbance (Table 6, A549, 60 μM): 0.7739; Percent Survival (Table 6, A549, 60 μM): 32.7771%; Average Absorbance (Table 6, A549, 70 μM): 0.8536; Percent Survival (Table 6, A549, 70 μM): 36.1526%; Average Absorbance (Table 8, A549, 10 μM): 2.4711; Percent Survival (Table 8, A549, 10 μM): 101.1544%; Average Absorbance (Table 8, A549, 20 μM): 2.4672; Percent Survival (Table 8, A549, 20 μM): 100.9947%; Average Absorbance (Table 8, A549, 30 μM): 1.9896; Percent Survival (Table 8, A549, 30 μM): 81.4442%; Average Absorbance (Table 8, A549, 40 μM): 1.0963; Percent Survival (Table 8, A549, 40 μM): 44.8770%; Average Absorbance (Table 8, A549, 50 μM): 0.6485; Percent Survival (Table 8, A549, 50 μM): 26.5463%; Average Absorbance (Table 8, A549, 60 μM): 0.5811; Percent Survival (Table 8, A549, 60 μM): 23.7873%; Average Absorbance (Table 8, A549, 70 μM): 0.6294; Percent Survival (Table 8, A549, 70 μM): 25.7645%
